Source: patent publication US11229664B2, “Treatment of myelosuppression” (priority 2012, dated 2022)
Where “and” joins values, the source holds several entries; their conditions need not be identical. Identical values can stand only once.

How the values were obtained:
anticoagulant activity = conditions: cited from earlier work
IIa = IIa (Homo sapiens, UniProt P00734+P01008); conditions: cited from earlier work
Xa = Xa (Homo sapiens, UniProt P00742); conditions: cited from earlier work
anti-thrombin III = anti-thrombin III (Homo sapiens, UniProt P01008); conditions: cited from earlier work
[1] = tested on: Human ovarian cancer cell line A2780; test: A2780 human ovarian cancer xenograft model: tumor weight; assay type: in vivo, athymic female mice; design: key to Mouse status printed in place of tumor weight: FD = Found Dead; TS = Terminal Sacrifice; conditions: for Mouse status printed in place of tumor weight: Groups 2 and 3
Protocol: (§1) ODSH (50 mg/mL stock concentration) was made by Pyramid Laboratories, Inc. and stored at room temperature until use. As described further below, ODSH was administered either intravenously (IV), at a dose of 48 mg/kg and volume of 10 mL/kg, or subcutaneously (SC) at a dose of 24 mg/kg and volume of 5 ml/kg. Carboplatin obtained from a clinical supplier was stored at 4° C. until use. Carboplatin was administered by intraperitoneal injection (IP) at a dose of 80 mg/kg and volume of 10 mL/kg. Saline solution (0.9% NaCl) was used as a vehicle control for ODSH and administered by the same routes and in the same volumes as ODSH.
(§2) Human ovarian cancer cell line A2780 was used in the murine xenograft experiments as follows. Approximately 5×10^6 A2780 cells were used per mouse, injected subcutaneously into the right flank in 0.1 mL of 50% Matrigel/50% media. The study was initiated when tumors reached a size of 90-130 mg. 40 mice were used, 10 per treatment regimen. The mice were normal athymic female mice, aged 6-7 weeks, housed in microisolator cages and maintained under pathogen-free conditions. Tumor and body weights were measured three times per week.
(§3) Four treatment groups were studied.

[2] = A2780 xenograft study: body weight; assay type: in vivo, athymic female mice; conditions: Group 3: 80 mg/kg IP QD 1, 8, 15, individual mice, 80 mg/kg
Protocol: as §1, §2, §3

anti-thrombin III, sequence (P01008 33-464, species assumed): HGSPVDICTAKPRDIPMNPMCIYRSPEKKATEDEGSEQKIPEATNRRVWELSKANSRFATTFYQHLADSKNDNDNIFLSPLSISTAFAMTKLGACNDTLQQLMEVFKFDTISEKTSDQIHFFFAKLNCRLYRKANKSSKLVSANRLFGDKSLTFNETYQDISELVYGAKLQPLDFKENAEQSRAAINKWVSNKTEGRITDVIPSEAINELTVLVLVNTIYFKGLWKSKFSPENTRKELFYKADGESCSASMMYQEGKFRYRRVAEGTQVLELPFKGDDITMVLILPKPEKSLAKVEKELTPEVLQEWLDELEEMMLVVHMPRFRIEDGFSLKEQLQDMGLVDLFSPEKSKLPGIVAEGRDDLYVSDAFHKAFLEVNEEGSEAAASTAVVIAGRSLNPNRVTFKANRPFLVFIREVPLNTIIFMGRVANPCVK
Xa, sequence (P01008 33-464 partner): as the sequence (P01008 33-464, species assumed) above
Xa, sequence (P00742 235-488 limits assumed): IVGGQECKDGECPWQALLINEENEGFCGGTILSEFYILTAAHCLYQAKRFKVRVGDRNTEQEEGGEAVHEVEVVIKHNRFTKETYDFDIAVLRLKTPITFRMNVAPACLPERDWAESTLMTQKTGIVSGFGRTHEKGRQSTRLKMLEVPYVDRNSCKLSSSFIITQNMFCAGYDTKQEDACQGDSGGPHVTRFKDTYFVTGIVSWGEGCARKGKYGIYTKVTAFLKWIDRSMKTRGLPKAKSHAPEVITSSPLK

## unfractionated heparin
Anticoagulant activity
  Anticoagulant activity, USP anticoagulant assay: 165-190 U/mg
IIa
  anti-IIa activity: 165-190 U/mg
Xa
  anti-Xa activity: 165-190 U/mg
anti-thrombin III
  Kd, affinity for anti-thrombin III: 22 µg/mL
anti-thrombin III; read-out: Kd, affinity for anti-thrombin III
  Kd: 1560 nM

## N.N.O=C([O-])C1(C(=O)[O-])CCC1.[Pt+2] [Carboplatin, reference compound]
[1]; Day 1
  Tumor weight, Mean: 107.3 mg
  Tumor weight, Median: 105.6 mg
[1]; Day 1, Mouse 1-10
  Tumor weight, individual mice: 104 mg and 105 mg and 106 mg and 110 mg and 113 mg and 116 mg and 127 mg and 94 mg and 96 mg and 102 mg
[1]; Day 4
  Tumor weight, Mean: 148.2 mg
  Tumor weight, Median: 144.5 mg
[1]; Day 4, Mouse 1-10
  Tumor weight, individual mice: 108 mg (2×) and 175 mg and 199 mg and 142 mg and 163 mg and 147 mg and 194 mg and 137 mg and 109 mg
[1]; Day 6
  Tumor weight, Mean: 213.0 mg
  Tumor weight, Median: 215.6 mg
[1]; Day 6, Mouse 1-10
  Tumor weight, individual mice: 114 mg and 264 mg and 239 mg and 223 mg and 300 mg and 208 mg and 256 mg and 200 mg and 157 mg and 169 mg
[1]; Day 8
  Tumor weight, Mean: 356.5 mg
  Tumor weight, Median: 364.2 mg
[1]; Day 8, Mouse 1-10
  Tumor weight, individual mice: 148 mg and 466 mg and 358 mg and 371 mg and 605 mg and 306 mg and 386 mg and 419 mg and 245 mg and 262 mg
[1]; Day 11
  Tumor weight, Mean: 483.1 mg
  Tumor weight, Median: 508.5 mg
[1]; Day 11, Mouse 1-10
  Tumor weight, individual mice: 103 mg and 539 mg and 499 mg and 419 mg and 813 mg and 555 mg and 542 mg and 517 mg and 442 mg and 402 mg
[1]; Day 14
  Tumor weight, Mean: 719.3 mg
  Tumor weight, Median: 750.3 mg
[1]; Day 14, Mouse 1-10
  Tumor weight, individual mice: 96 mg and 875 mg and 799 mg and 628 mg and 1,093 mg and 795 mg and 975 mg and 587 mg and 706 mg and 640 mg
[1]; Day 18
  Tumor weight, Mean: 984.1 mg
  Tumor weight, Median: 1,051.0 mg
[1]; Day 18, Mouse 1-10
  Tumor weight, individual mice: 84 mg and 1,349 mg and 1,218 mg and 713 mg and 1,806 mg and 1,160 mg and 1,168 mg and 942 mg and 730 mg and 671 mg
[1]; Day 21
  Tumor weight, Mean: 1,327.3 mg
  Tumor weight, Median: 1,328.6 mg
[1]; Day 21, Mouse 1-10
  Tumor weight, individual mice: 112 mg and 1,790 mg and 1,596 mg and 834 mg and 2,675 mg and 1,626 mg and 1,439 mg and 1,218 mg and 941 mg and 1,040 mg
[1]; Day 25
  Tumor weight, Mean: 1,761.3 mg
  Tumor weight, Median: 1,921.0 mg
[1]; Day 25, Mouse 1-10
  Tumor weight, individual mice: 2,403 mg and 2,127 mg and 1,109 mg and 1,921 mg and 1,246 mg
[1]; Day 25, individual mice
  Mouse status printed in place of tumor weight: TS
[1]; Day 28
  Tumor weight, Mean: 2,243.0 mg
  Tumor weight, Median: 2,461.0 mg
[1]; Day 28, Mouse 1-10
  Tumor weight, individual mice: 2,877 mg and 2,599 mg and 1,539 mg and 2,461 mg and 1,739 mg
[1]; Day 28, individual mice
  Mouse status printed in place of tumor weight: TS
[2]; Day 1 (baseline)
  Individual weights, Day 1 Weight: 23.2 g and 20.6 g and 22.6 g and 21.7 g and 20.7 g and 22.4 g and 19.7 g and 20.3 g and 21.6 g and 22.2 g
[2]; Day 4
  Day 4 Weight change: −2.6% and −5.3% and −4.4% and −3.2% and 1.9% and −0.4% and −5.6% and −5.9% and −2.3% and −1.8%
  Individual weights, Day 4 Weight: 22.6 g and 19.5 g and 21.6 g and 21.0 g and 21.1 g (2×) and 22.3 g and 18.6 g and 19.1 g and 21.8 g
[2]; Day 6
  Day 6 Weight change: −3.0% (2×) and −4.9% and 1.3% and −1.4% and 3.91% and −0.4% and −4.4% and −3.7% and −3.2%
  Individual weights, Day 6 Weight: 22.5 g and 19.6 g and 22.9 g and 21.4 g and 21.5 g (2×) and 22.3 g and 19.1 g and 19.4 g and 20.8 g
[2]; Day 8
  Day 8 Weight change: 2.2% (2×) and 0.5% (2×) and 6.2% and 1.4% and 5.3% and 1.5% and −1.0% and −1.4%
  Individual weights, Day 8 Weight: 23.7 g and 20.7 g and 24.0 g and 22.0 g and 23.8 g and 22.9 g and 20.0 g and 20.1 g and 21.3 g and 22.3 g
[2]; Day 11
  Day 11 Weight change: −7.3% and −4.9% and 0.9% and −5.5% and 2.4% and −3.6% and −5.1% and −6.4% and −11.1% and −7.7%
  Individual weights, Day 11 Weight: 21.5 g and 19.6 g and 22.8 g and 20.5 g (2×) and 21.2 g and 21.6 g and 18.7 g and 19.0 g and 19.2 g
[2]; Day 14
  Day 14 Weight change: −2.2% and 1.0% and 2.7% and −0.5% and 9.7% and 3.1% and −1.5% and −3.0% and −10.6% and −9.5%
  Individual weights, Day 14 Weight: 22.7 g (2×) and 20.0 g and 23.2 g and 21.6 g and 23.1 g and 19.4 g and 19.7 g and 19.3 g and 20.1 g
[2]; Day 18
  Day 18 Weight change: −4.3% and −1.9% and −5.8% and −10.6% and 6.3% and 4.0% and −8.6% and −7.9% and −17.1% and −9.0%
  Individual weights, Day 18 Weight: 22.2 g and 20.2 g (2×) and 21.3 g and 19.4 g and 22.0 g and 23.3 g and 18.0 g and 18.7 g and 17.9 g
[2]; Day 21
  Day 21 Weight change: −0.4% and 3.9% and −4.9% and −8.3% and 13.5% and 7.1% and −8.6% (2×) and −5.4% and −15.7%
  Individual weights, Day 21 Weight: 23.1 g and 21.4 g and 21.5 g and 19.9 g and 23.5 g and 24.0 g and 18.0 g and 19.2 g and 18.2 g and 20.3 g
[2]; Day 25
  Day 25 Weight change: 8.3% and −3.5% and −6.9% and −2.0% and −8.1%
  Individual weights, Day 25 Weight: 22.3 g and 21.8 g and 20.2 g and 19.9 g and 20.4 g
[2]; Day 28
  Day 28 Weight change: 11.7% and −1.8% and −2.8% and 3.0% and −8.6%
  Individual weights, Day 28 Weight: 23.0 g and 22.2 g and 21.1 g and 20.9 g and 20.3 g
